Each structure is given as a SMILES string.

These results are taken from patent US20200215016A1, “Ketone Bodies To Protect Tissues From Damage By Ionizing Radiation” (TDELTAS LIMITED, priority 2012, published 2020).

Data set [1] has as its system Human osteoblast cells (HOS). In words: Cellular radioprotection of cultured osteoblasts exposed to 60Co gamma radiation. The note with it: ketone ester administered after radiation. Type of data set: cell-based. The procedure: FIG. 1 is a pair of graphs illustrating cellular radioprotection by ketone esters. Human osteoblast cells (HOS) were treated with ketone esters either pre-(left panel) or post-(right panel) ^60Co gamma radiation (0.6 Gy/min). The methods used in the studies of cultured cells were the same as previously reported in Miller A. C. et al., Int. J. of Radiation Biol. 1997, 72: 211-18. The ester composition used was the mono R 3 hydroxybutyryl-R-1,3 butanediol enantiomerically enriched in the 1 position of R-1,3 butanediol. Studies were performed using cultured osteoblasts exposed to gamma radiation with and without (R)-1,3-butanediol ester of (R)-3-hydroxybutyrate as described herein to determine the effect of ketone esters on radiation damage. FIG. 1 is a pair of graphs illustrating cellular radioprotection by ketone esters in which human cultured osteoblast cells were treated pre- or post […] gamma radiation (0.6 Gy/min) with a ketone ester. FIG. 2 illustrates chromosomal protection by ketone esters. FIG. 3 is a pair of graphs illustrating protection against proton radiation after administration of ketones in which human cultured osteoblast cells were treated pre- or post-proton radiation (4 MeV) with a ketone ester. FIG. 4 is a graph illustrating ketone ester stability at pH 7. FIG. 5 is a graph illustrating ketone ester blood metabolite levels. […]

Data set [2] is described as follows: Ketone ester blood metabolite levels / ketosis after administration. It is filed as in vivo. As to conditions: FIG. 5: 5 grams/kg dose, males. The procedure: FIG. 5 is a graph illustrating ketone ester blood metabolite levels (5 grams/kg dose, males).
To maintain elevated blood ketone body concentrations over a 24 hour period, delayed release formulations can be used. The release of the (R)-3-hydroxybutyrate derivatives can be controlled by a number of formulation techniques. For example, techniques such as enteric coatings, film coatings, microencapsulation and the like can be used to retard release of the (R)-3-hydroxybutyrate derivatives as is known to those of ordinary skill in the art.

Data set [3] has as its system HOS cells. Put plainly: Protection of cultured osteoblasts against proton radiation (4 MeV): cell survival and DNA damage. The note with it: ketone treatment prior to proton radiation (4 MeV). It is filed as cell-based, human. The method, then:
FIG. 3 is a pair of graphs and images illustrating protection against proton radiation after administration of ketones. HOS cells were treated with ketone esters either pre- or post-proton radiation (4 MeV). […] The methods used in the studies of cultured cells were the same as previously reported in Miller A. C. et al., Int. J. of Radiation Biol. 1997, 72: 211-18. The ester composition used was the mono R 3 hydroxybutyryl-R-1,3 butanediol enantiomerically enriched in the 1 position of R-1,3 butanediol. Studies were performed using cultured osteoblasts exposed to gamma radiation with and without (R)-1,3-butanediol ester of (R)-3-hydroxybutyrate as described herein to determine the effect of ketone esters on radiation damage. FIG. 1 is a pair of graphs illustrating cellular radioprotection by ketone esters in which human cultured osteoblast cells were treated pre- or post […] gamma radiation (0.6 Gy/min) with a ketone ester. FIG. 2 illustrates chromosomal protection by ketone esters. FIG. 3 is a pair of graphs illustrating protection against proton radiation after administration of ketones in which human cultured osteoblast cells were treated pre- or post-proton radiation (4 MeV) with a ketone ester. FIG. 4 is a graph illustrating ketone ester stability at pH 7. FIG. 5 is a graph illustrating ketone ester blood metabolite levels. […]

On to `C[C@@H](O)CCOC(=O)C[C@@H](C)O` [ketone esters, mono R 3 hydroxybutyryl-R-1,3 butanediol], for which, in data set [1], the cell salvage entry was “increases cell salvage”. Moreover, in data set [2], the generation of ketosis result is reported as “sustained generation of ketosis over a period of hours”. Moreover, the cell survival result in data set [3] (FIG. 3 left graph) is reported as “increased cell survival”. Moreover, the DNA damage result in data set [3] (FIG. 3 right graph) is recorded as “mitigated DNA damage”.
